Measured values reported in PubChem BioAssay (NCI).
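Where inhibition never reached the appropriate level, the endpoint shown equals the highest concentration tested. Otherwise, values were interpolated linearly from a five-concentration, 48-hour dose response in 96-well plates. GI50 marks 50% less growth. At the TGI there is no net growth.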

How the values were obtained:
Experiment in all cases: DTP human tumour cell line panel, 48 h
SF-268 CNS = tested on: SF-268 CNS
HCT-15 colon = tested on: HCT-15 colon
SW-620 colon = tested on: SW-620 colon
CAKI-1 renal = tested on: CAKI-1 renal
RPMI-8226 leukemia = tested on: RPMI-8226 leukemia
SNB-75 CNS = tested on: SNB-75 CNS
ACHN renal = tested on: ACHN renal
HCC-2998 colon = tested on: HCC-2998 colon
BT-549 breast = tested on: BT-549 breast
TK-10 renal = tested on: TK-10 renal
NCI/ADR-RES ovarian = tested on: NCI/ADR-RES ovarian
MOLT-4 leukemia = tested on: MOLT-4 leukemia
NCI-H522 lung = tested on: NCI-H522 lung
HL-60(TB) leukemia = tested on: HL-60(TB) leukemia
SR leukemia = tested on: SR leukemia
NCI-H460 lung = tested on: NCI-H460 lung
SK-OV-3 ovarian = tested on: SK-OV-3 ovarian
A549 NSCLC = tested on: A549 NSCLC
UACC-62 melanoma = tested on: UACC-62 melanoma
NCI-H226 lung = tested on: NCI-H226 lung
MALME-3M melanoma = tested on: MALME-3M melanoma
HOP-92 NSCLC = tested on: HOP-92 NSCLC
HS 578T breast = tested on: HS 578T breast
IGROV1 ovarian = tested on: IGROV1 ovarian
DU-145 prostate = tested on: DU-145 prostate
UACC-257 melanoma = tested on: UACC-257 melanoma
RXF 393 renal = tested on: RXF 393 renal
LOX IMVI melanoma = tested on: LOX IMVI melanoma
HT29 colon = tested on: HT29 colon
SNB-19 CNS = tested on: SNB-19 CNS
OVCAR-8 ovarian = tested on: OVCAR-8 ovarian
MDA-MB-435 = tested on: MDA-MB-435
KM12 colon = tested on: KM12 colon
T-47D breast = tested on: T-47D breast
NCI-H23 lung = tested on: NCI-H23 lung
CCRF-CEM leukemia = tested on: CCRF-CEM leukemia
OVCAR-4 ovarian = tested on: OVCAR-4 ovarian
UO-31 renal = tested on: UO-31 renal
SF-539 CNS = tested on: SF-539 CNS
MCF7 breast = tested on: MCF7 breast
SF-295 CNS = tested on: SF-295 CNS
SN12C renal = tested on: SN12C renal
HOP-62 NSCLC = tested on: HOP-62 NSCLC
OVCAR-5 ovarian = tested on: OVCAR-5 ovarian
SK-MEL-2 melanoma = tested on: SK-MEL-2 melanoma
OVCAR-3 ovarian = tested on: OVCAR-3 ovarian
A498 renal = tested on: A498 renal
EKVX NSCLC = tested on: EKVX NSCLC
MDA-MB-231 breast = tested on: MDA-MB-231 breast
HCT-116 colon = tested on: HCT-116 colon
K-562 leukemia = tested on: K-562 leukemia
PC-3 prostate = tested on: PC-3 prostate
786-0 renal = tested on: 786-0 renal
SK-MEL-28 melanoma = tested on: SK-MEL-28 melanoma
U251 CNS = tested on: U251 CNS
SK-MEL-5 melanoma = tested on: SK-MEL-5 melanoma

N#Cc1nc(-c2ccc(F)cc2)oc1S(=O)(=O)N1CCOCC1
GI50 (SF-268 CNS): 11 µM
TGI (SF-268 CNS): 25.4 µM
GI50 (HCT-15 colon): 1.98 µM
TGI (HCT-15 colon): 5.37 µM
GI50 (SW-620 colon): 1.57 µM
TGI (SW-620 colon): 3.24 µM
GI50 (CAKI-1 renal): 2.12 µM
TGI (CAKI-1 renal): 5.62 µM
GI50 (RPMI-8226 leukemia): 1.55 µM
TGI (RPMI-8226 leukemia): 4.49 µM
GI50 (SNB-75 CNS): 10.2 µM
TGI (SNB-75 CNS): 22 µM
GI50 (ACHN renal): 1.74 µM
TGI (ACHN renal): 3.12 µM
GI50 (HCC-2998 colon): 11.9 µM
TGI (HCC-2998 colon): 25.5 µM
GI50 (BT-549 breast): 10.8 µM
TGI (BT-549 breast): 23 µM
GI50 (TK-10 renal): 1.75 µM
TGI (TK-10 renal): 3.26 µM
GI50 (NCI/ADR-RES ovarian): 13.4 µM
TGI (NCI/ADR-RES ovarian): 47.2 µM
GI50 (MOLT-4 leukemia): 2.02 µM
TGI (MOLT-4 leukemia): 5.49 µM
GI50 (NCI-H522 lung): 0.675 µM
TGI (NCI-H522 lung): 3.13 µM
GI50 (HL-60(TB) leukemia): 1.91 µM
TGI (HL-60(TB) leukemia): 4.76 µM
GI50 (SR leukemia): 0.439 µM
TGI (SR leukemia): 2.92 µM
GI50 (NCI-H460 lung): 12.6 µM
TGI (NCI-H460 lung): 27.3 µM
GI50 (SK-OV-3 ovarian): 23.4 µM
TGI (SK-OV-3 ovarian): 86.6 µM
GI50 (A549 NSCLC): 18.2 µM
TGI (A549 NSCLC): 38.7 µM
GI50 (UACC-62 melanoma): 4.79 µM
TGI (UACC-62 melanoma): 17.6 µM
GI50 (NCI-H226 lung): 4.33 µM
TGI (NCI-H226 lung): 19.9 µM
GI50 (MALME-3M melanoma): 1.7 µM
TGI (MALME-3M melanoma): 4.23 µM
GI50 (HOP-92 NSCLC): 2.66 µM
TGI (HOP-92 NSCLC): 9.48 µM
GI50 (HS 578T breast): 15.1 µM
TGI (HS 578T breast): 45.4 µM
GI50 (IGROV1 ovarian): 3.68 µM
TGI (IGROV1 ovarian): 14.6 µM
GI50 (DU-145 prostate): 2.23 µM
TGI (DU-145 prostate): 6.07 µM
GI50 (UACC-257 melanoma): 7 µM
TGI (UACC-257 melanoma): 20.7 µM
GI50 (RXF 393 renal): 1.49 µM
TGI (RXF 393 renal): 2.92 µM
GI50 (LOX IMVI melanoma): 1.02 µM
TGI (LOX IMVI melanoma): 2.3 µM
GI50 (HT29 colon): 3.11 µM
TGI (HT29 colon): > 100 µM
GI50 (SNB-19 CNS): 13.7 µM
TGI (SNB-19 CNS): 28 µM
GI50 (OVCAR-8 ovarian): 4.71 µM
TGI (OVCAR-8 ovarian): 30.2 µM
GI50 (MDA-MB-435): 2.38 µM
TGI (MDA-MB-435): 6.9 µM
GI50 (KM12 colon): 12 µM
TGI (KM12 colon): 26.3 µM
GI50 (T-47D breast): 2.11 µM
TGI (T-47D breast): 5.23 µM
GI50 (NCI-H23 lung): 10.4 µM
TGI (NCI-H23 lung): 25.4 µM
GI50 (CCRF-CEM leukemia): 1.62 µM
TGI (CCRF-CEM leukemia): 7.35 µM
GI50 (OVCAR-4 ovarian): 3.08 µM
TGI (OVCAR-4 ovarian): 10.2 µM
GI50 (UO-31 renal): 1.62 µM
TGI (UO-31 renal): 2.97 µM
GI50 (SF-539 CNS): 1.88 µM
TGI (SF-539 CNS): 4.02 µM
GI50 (MCF7 breast): 2.65 µM
TGI (MCF7 breast): 11.7 µM
GI50 (SF-295 CNS): 16.1 µM
TGI (SF-295 CNS): 30.6 µM
GI50 (SN12C renal): 1.77 µM
TGI (SN12C renal): 4.1 µM
GI50 (HOP-62 NSCLC): 10.8 µM
TGI (HOP-62 NSCLC): 37.9 µM
GI50 (OVCAR-5 ovarian): 2.8 µM
TGI (OVCAR-5 ovarian): 9.38 µM
GI50 (SK-MEL-2 melanoma): 13.4 µM
TGI (SK-MEL-2 melanoma): 27.5 µM
GI50 (OVCAR-3 ovarian): 1.75 µM
TGI (OVCAR-3 ovarian): 3.18 µM
GI50 (A498 renal): 15.6 µM
TGI (A498 renal): 32 µM
GI50 (EKVX NSCLC): 13.8 µM
TGI (EKVX NSCLC): 37 µM
GI50 (MDA-MB-231 breast): 2.86 µM
TGI (MDA-MB-231 breast): 8.64 µM
GI50 (HCT-116 colon): 1.28 µM
TGI (HCT-116 colon): 3.07 µM
GI50 (K-562 leukemia): 1.7 µM
TGI (K-562 leukemia): 10.9 µM
GI50 (PC-3 prostate): 11.6 µM
TGI (PC-3 prostate): 26.9 µM
GI50 (786-0 renal): 3.34 µM
TGI (786-0 renal): 11.7 µM
GI50 (SK-MEL-28 melanoma): 2.41 µM
TGI (SK-MEL-28 melanoma): 6.25 µM
GI50 (U251 CNS): 14.5 µM
TGI (U251 CNS): 31.5 µM
GI50 (SK-MEL-5 melanoma): 6.33 µM
TGI (SK-MEL-5 melanoma): 18.8 µM
